According to the NIST ThermoML archive (doi:10.1016/j.jct.2015.09.016):

Legend:
[1] = 101.33 kPa, Liquid; for electrical conductivity: Alternating current cell with electrodes; for viscosity: Falling or rolling sphere viscometry; for speed of sound: Sing-around technique in a fixed-path interferometer; for mass density: Vibrating tube method
[2] = refractive index (Na D-line) (dimensionless); conditions: 303.15 K; 101.33 kPa; Liquid; Standard Abbe refractometry
[3] = wn = mass fraction of the nth substance listed; conditions: 303.15 K, 100 kPa, Liquid; for electrical conductivity: Alternating current cell with electrodes; for viscosity: Falling or rolling sphere viscometry; for speed of sound: Frequency=3 MHz, Sing-around technique in a fixed-path interferometer; for mass density: Vibrating tube method

CCCC[NH2+]CCO.O=C([O-])C(F)(F)F [N-(2-hydroxyethyl)butan-1-aminium 2,2,2-trifluoroacetate]
[1]
Conditions | electrical conductivity [S/m] | mass density [kg/m3] | speed of sound [m/s] | viscosity [mPa·s]
303.15 K | 0.0391 | 1203.34 | 1282.6 | 211.7
308.15 K | 0.0494 | 1198.07 | 1270 | 171.1
313.15 K | 0.0596 | 1194.18 | 1257.7 | 135.3
318.15 K | 0.0703 | 1190.28 | 1245.7 | 104.6
323.15 K | 0.0811 | 1186.37 | 1233.9 | 81.7
328.15 K | 0.0916 | 1182.48 | 1222.4 | 64.7
333.15 K | 0.103 | 1178.6 | 1211 | 52.3
338.15 K | 0.116 | 1174.73 | 1199.8 | 42.8
343.15 K | 0.128 | 1170.87 | 1188.7 | 35.6

Conditions | refractive index
[2] | 1.4126

CCCC[NH2+]CCO.O=C([O-])C(F)(F)F [N-(2-hydroxyethyl)butan-1-aminium 2,2,2-trifluoroacetate] + O
[3]
Conditions | electrical conductivity [S/m] | mass density [kg/m3] | speed of sound [m/s] | viscosity [mPa·s]
w2 = 0.002186 | 0.0391 | 1203.34 | 1282.6 | 211.7
w2 = 0.003652 | 0.0393 | – | – | –
w2 = 0.003864 | – | 1203.51 | 1282.9 | 211.1
w2 = 0.004819 | 0.0394 | – | – | –
w2 = 0.005373 | – | 1203.68 | 1283.2 | 210.4
w2 = 0.006342 | 0.0396 | – | – | –
w2 = 0.006759 | – | 1203.81 | 1283.4 | 209.8
w2 = 0.007483 | 0.0398 | – | – | –
w2 = 0.008675 | – | 1204 | 1283.7 | 209.1

CCCC[NH2+]CCO.O=[N+]([O-])[O-] [N-(2-hydroxyethyl)butan-1-aminium nitrate]
[1]
Conditions | electrical conductivity [S/m] | mass density [kg/m3] | speed of sound [m/s] | viscosity [mPa·s]
303.15 K | 0.0583 | 1114.69 | 1608.3 | 272.1
308.15 K | 0.0701 | 1111.58 | 1595.7 | 202.9
313.15 K | 0.085 | 1108.47 | 1583.5 | 154
318.15 K | 0.0982 | 1105.35 | 1571.5 | 119.2
323.15 K | 0.115 | 1102.25 | 1559.7 | 93.3
328.15 K | 0.136 | 1099.15 | 1548.1 | 74.1
333.15 K | 0.16 | 1096.07 | 1536.7 | 59.6
338.15 K | 0.182 | 1093 | 1525.4 | 48.8
343.15 K | 0.2 | 1089.95 | 1514.3 | 40.6

Conditions | refractive index
[2] | 1.4675

CCCC[NH2+]CCO.O=[N+]([O-])[O-] [N-(2-hydroxyethyl)butan-1-aminium nitrate] + O
[3]
Conditions | electrical conductivity [S/m] | mass density [kg/m3] | speed of sound [m/s] | viscosity [mPa·s]
w2 = 0.002318 | 0.0583 | 1114.69 | 1608.3 | 272.1
w2 = 0.003573 | 0.0585 | – | – | –
w2 = 0.003967 | – | 1114.88 | 1608.7 | 271.5
w2 = 0.004837 | 0.0587 | – | – | –
w2 = 0.005068 | – | 1115.01 | 1609 | 271.1
w2 = 0.006108 | 0.0589 | – | – | –
w2 = 0.006904 | – | 1115.21 | 1609.4 | 270.5
w2 = 0.007452 | 0.0591 | – | – | –
w2 = 0.008717 | – | 1115.39 | 1609.8 | 269.8
